Measured values taken from BindingDB's records for doi:10.1016/j.bioorg.2016.07.013 (Shenyang Pharmaceutical University, 2016).

Tests used:
[1] = biological target: Acetylcholinesterase (Homo sapiens, UniProt P22303); experiment: AChE and BuChE Inhibition Assay; details: pH 8
Procedure: (§1) The reaction mixture was consisted of 100 µL of the total volume.

[2] = biological target: Cholinesterase (Homo sapiens, UniProt P06276); experiment: AChE and BuChE Inhibition Assay; details: pH 8
Procedure: as §1

Sequence of Cholinesterase (P06276 whole entry): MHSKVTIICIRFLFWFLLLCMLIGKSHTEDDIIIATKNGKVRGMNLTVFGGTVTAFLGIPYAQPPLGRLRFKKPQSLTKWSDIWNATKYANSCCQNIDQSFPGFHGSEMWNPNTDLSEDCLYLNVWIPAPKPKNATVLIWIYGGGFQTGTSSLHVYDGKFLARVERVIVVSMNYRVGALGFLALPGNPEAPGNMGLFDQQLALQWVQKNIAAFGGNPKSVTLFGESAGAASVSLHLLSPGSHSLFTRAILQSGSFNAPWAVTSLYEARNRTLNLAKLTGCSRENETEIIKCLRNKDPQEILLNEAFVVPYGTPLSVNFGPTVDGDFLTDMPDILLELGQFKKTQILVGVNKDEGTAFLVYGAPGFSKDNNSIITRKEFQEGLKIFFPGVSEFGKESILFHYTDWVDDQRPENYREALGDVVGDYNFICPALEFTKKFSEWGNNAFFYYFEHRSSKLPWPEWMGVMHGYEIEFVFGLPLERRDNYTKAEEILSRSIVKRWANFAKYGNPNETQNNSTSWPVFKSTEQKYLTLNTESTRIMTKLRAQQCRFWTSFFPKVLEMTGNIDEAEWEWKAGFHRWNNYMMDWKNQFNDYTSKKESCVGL
Sequence of Acetylcholinesterase (P22303 whole entry): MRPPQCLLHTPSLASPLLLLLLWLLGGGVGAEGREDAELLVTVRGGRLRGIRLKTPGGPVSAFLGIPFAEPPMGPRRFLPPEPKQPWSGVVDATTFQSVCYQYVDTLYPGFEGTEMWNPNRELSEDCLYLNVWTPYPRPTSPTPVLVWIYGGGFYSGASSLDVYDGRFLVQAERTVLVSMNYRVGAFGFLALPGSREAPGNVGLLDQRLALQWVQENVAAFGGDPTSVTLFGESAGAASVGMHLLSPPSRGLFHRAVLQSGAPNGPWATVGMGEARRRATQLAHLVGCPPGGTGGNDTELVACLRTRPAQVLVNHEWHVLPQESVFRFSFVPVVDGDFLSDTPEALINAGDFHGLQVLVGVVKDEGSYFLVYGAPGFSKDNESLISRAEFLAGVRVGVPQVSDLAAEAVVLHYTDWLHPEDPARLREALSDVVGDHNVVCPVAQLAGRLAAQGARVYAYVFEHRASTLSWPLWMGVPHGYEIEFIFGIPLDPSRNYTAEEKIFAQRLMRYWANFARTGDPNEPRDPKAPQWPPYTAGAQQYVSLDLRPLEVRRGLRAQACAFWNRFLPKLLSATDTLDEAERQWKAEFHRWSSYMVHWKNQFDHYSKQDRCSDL

| Compound | IC50 [1] | IC50 [2] |
| --- | --- | --- |
| CCN1CCN(Cc2ccc(NC(=O)c3cc4cc(Br)ccc4oc3=O)cc2Cl)CC1 [6-Bromo-N-(3-chloro-4-((4-ethylpiperazin-1-yl)methyl)phenyl)-2-oxo-2H-chromene-3-carboxamide (9t)] | 120 nM |  |
| CN1CCN(Cc2ccc(NC(=O)c3cc4cc(Br)ccc4oc3=O)cc2Cl)CC1 [6-Bromo-N-(3-chloro-4-((4-methylpiperazin-1-yl)methyl)phenyl)-2-oxo-2H-chromene-3-carboxamide (9u)] | 330 nM | 1890 nM |
| CCN1CCN(Cc2ccc(NC(=O)c3cc4cc(Cl)ccc4oc3=O)cc2Cl)CC1 [6-Chloro-N-(3-chloro-4-((4-ethylpiperazin-1-yl)methyl)phenyl)-2-oxo-2H-chromene-3-carboxamide (9p)] | 222 nM |  |
| CN1CCN(Cc2ccc(NC(=O)c3cc4cc(Cl)ccc4oc3=O)cc2Cl)CC1 [6-Chloro-N-(3-chloro-4-((4-methylpiperazin-1-yl)methyl)phenyl)-2-oxo-2H-chromene-3-carboxamide (9q)] | 841 nM | 1790 nM |
| COc1ccc2cc(C(=O)Nc3ccc(CN4CCN(C)CC4)c(C(F)(F)F)c3)c(=O)oc2c1 [7-Methoxy-N-(4-((4-methylpiperazin-1-yl)methyl)-3-(trifluoromethyl)phenyl)-2-oxo-2H-chromene-3-carboxamide (9j)] | 591 nM |  |
| COc1cccc2cc(C(=O)Nc3ccc(CN4CCN(C)CC4)c(C(F)(F)F)c3)c(=O)oc12 [8-Methoxy-N-(4-((4-methylpiperazin-1-yl)methyl)-3-(trifluoromethyl)phenyl)-2-oxo-2H-chromene-3-carboxamide (9d)] | 1450 nM |  |
| CCN1CCN(Cc2ccc(NC(=O)c3cc4ccccc4oc3=O)cc2Cl)CC1 [N-(3-chloro-4-((4-ethylpiperazin-1-yl)methyl)phenyl)-2-oxo-2H-chromene-3-carboxamide (9l)] | 1300 nM | 1590 nM |
| CCN1CCN(Cc2ccc(NC(=O)c3cc4cc([N+](=O)[O-])ccc4oc3=O)cc2Cl)CC1 [N-(3-chloro-4-((4-ethylpiperazin-1-yl)methyl)phenyl)-6-nitro-2-oxo-2H-chromene-3-carboxamide (9x)] | 34 nM |  |
| CCN1CCN(Cc2ccc(NC(=O)c3cc4ccc(OC)cc4oc3=O)cc2Cl)CC1 [N-(3-chloro-4-((4-ethylpiperazin-1-yl)methyl)phenyl)-7-methoxy-2-oxo-2H-chromene-3-carboxamide (9f)] | 122 nM |  |
| CCN1CCN(Cc2ccc(NC(=O)c3cc4cccc(OC)c4oc3=O)cc2Cl)CC1 [N-(3-chloro-4-((4-ethylpiperazin-1-yl)methyl)phenyl)-8-methoxy-2-oxo-2H-chromene-3-carboxamide (9a)] | 195 nM |  |
| CN1CCN(Cc2ccc(NC(=O)c3cc4ccccc4oc3=O)cc2Cl)CC1 [N-(3-chloro-4-((4-methylpiperazin-1-yl)methyl)phenyl)-2-oxo-2H-chromene-3-carboxamide (9k)] | 1300 nM | 1970 nM |
| CN1CCN(Cc2ccc(NC(=O)c3cc4cc([N+](=O)[O-])ccc4oc3=O)cc2Cl)CC1 [N-(3-chloro-4-((4-methylpiperazin-1-yl)methyl)phenyl)-6-nitro-2-oxo-2H-chromene-3-carboxamide (9y)] | 807 nM | 1880 nM |
| COc1ccc2cc(C(=O)Nc3ccc(CN4CCN(C)CC4)c(Cl)c3)c(=O)oc2c1 [N-(3-chloro-4-((4-methylpiperazin-1-yl)methyl)phenyl)-7-methoxy-2-oxo-2H-chromene-3-carboxamide (9g)] | 1540 nM | 1680 nM |
| COc1cccc2cc(C(=O)Nc3ccc(CN4CCN(C)CC4)c(Cl)c3)c(=O)oc12 [N-(3-chloro-4-((4-methylpiperazin-1-yl)methyl)phenyl)-8-methoxy-2-oxo-2H-chromene-3-carboxamide (9b)] | 1220 nM | 1770 nM |
| CN1CCN(Cc2ccc(NC(=O)c3cc4ccccc4oc3=O)cc2C(F)(F)F)CC1 [N-(4-((4-methylpiperazin-1-yl)methyl)-3-(trifluoromethyl)phenyl)-2-oxo-2H-chromene-3-carboxamide (9o)] | 618 nM |  |
